According to the NIST ThermoML archive (doi:10.1021/je060271a):
Numbers after ± are expanded uncertainties.

Conditions: 283.16 K, Liquid, Vibrating tube method

CCCC(=O)OCC(COC(=O)CCC)(COC(=O)CCC)COC(=O)CCC [pentaerythritol tetrabutyrate]
mass density (5025.9 kPa): 1062 ± 1.3 kg/m3 | mass density (5026.2 kPa): 1062.1 ± 1.3 kg/m3 | mass density (5026.4 kPa): 1061.9 ± 1.3 kg/m3 | mass density (5026.6 kPa): 1061.9 ± 1.3 kg/m3 | mass density (5037.7 kPa): 1062 ± 1.3 kg/m3 | mass density (5052.7 kPa): 1062 ± 1.3 kg/m3 | mass density (5084.5 kPa): 1061.9 ± 1.3 kg/m3 | mass density (5099.4 kPa): 1062.1 ± 1.3 kg/m3 | mass density (5117.2 kPa): 1062.1 ± 1.3 kg/m3 | mass density (5132.1 kPa): 1062.1 ± 1.3 kg/m3 | mass density (5146.8 kPa): 1062.1 ± 1.3 kg/m3 | mass density (5164.5 kPa): 1062.1 ± 1.3 kg/m3 | mass density (5180.2 kPa): 1062 ± 1.3 kg/m3 | mass density (5195.4 kPa): 1062.1 ± 1.3 kg/m3 | mass density (5213.6 kPa): 1062.2 ± 1.3 kg/m3 | mass density (5229.7 kPa): 1062.1 ± 1.3 kg/m3 | mass density (5245.8 kPa): 1062.1 ± 1.3 kg/m3 | mass density (5261.4 kPa): 1062.2 ± 1.3 kg/m3 | mass density (5277.3 kPa): 1062.1 ± 1.3 kg/m3 | mass density (5296.5 kPa): 1062.2 ± 1.3 kg/m3 | mass density (5312.6 kPa): 1062.2 ± 1.3 kg/m3 | mass density (5328.5 kPa): 1062.1 ± 1.3 kg/m3 | mass density (5347.8 kPa): 1062.1 ± 1.3 kg/m3 | mass density (5364.8 kPa): 1062.2 ± 1.3 kg/m3 | mass density (5381.7 kPa): 1062.1 ± 1.3 kg/m3 | mass density (5398.7 kPa): 1062.3 ± 1.3 kg/m3 | mass density (5419.8 kPa): 1062.2 ± 1.3 kg/m3 | mass density (5436.6 kPa): 1062.3 ± 1.3 kg/m3 | mass density (5450.9 kPa): 1062.3 ± 1.3 kg/m3 | mass density (5465.9 kPa): 1062.2 ± 1.3 kg/m3 | mass density (5510.3 kPa): 1062.3 ± 1.3 kg/m3 | mass density (5516.6 kPa): 1062.3 ± 1.3 kg/m3 | mass density (5521.7 kPa): 1062.3 ± 1.3 kg/m3 | mass density (5526.9 kPa): 1062.3 ± 1.3 kg/m3 | mass density (5532.8 kPa): 1062.3 ± 1.3 kg/m3 | mass density (5538.2 kPa): 1062.2 ± 1.3 kg/m3 | mass density (5543.2 kPa): 1062.3 ± 1.3 kg/m3 | mass density (5548.7 kPa): 1062.2 ± 1.3 kg/m3 | mass density (5553.9 kPa): 1062.3 ± 1.3 kg/m3 | mass density (5560.3 kPa): 1062.2 ± 1.3 kg/m3 | mass density (5565.4 kPa): 1062.2 ± 1.3 kg/m3 | mass density (5570.9 kPa): 1062.4 ± 1.3 kg/m3 | mass density (5577.1 kPa): 1062.3 ± 1.3 kg/m3 | mass density (5582.3 kPa): 1062.3 ± 1.3 kg/m3 | mass density (5587.5 kPa): 1062.3 ± 1.3 kg/m3 | mass density (5592.9 kPa): 1062.4 ± 1.3 kg/m3 | mass density (5599.3 kPa): 1062.2 ± 1.3 kg/m3 | mass density (5604.6 kPa): 1062.4 ± 1.3 kg/m3 | mass density (5610 kPa): 1062.4 ± 1.3 kg/m3 | mass density (5616.4 kPa): 1062.4 ± 1.3 kg/m3 | mass density (5621.6 kPa): 1062.3 ± 1.3 kg/m3 | mass density (5627.3 kPa): 1062.3 ± 1.3 kg/m3 | mass density (5632.6 kPa): 1062.3 ± 1.3 kg/m3 | mass density (5639.2 kPa): 1062.3 ± 1.3 kg/m3 | mass density (5644.4 kPa): 1062.3 ± 1.3 kg/m3 | mass density (5649.9 kPa): 1062.3 ± 1.3 kg/m3 | mass density (5655.3 kPa): 1062.3 ± 1.3 kg/m3 | mass density (5661.7 kPa): 1062.4 ± 1.3 kg/m3 | mass density (5667.2 kPa): 1062.2 ± 1.3 kg/m3 | mass density (5674 kPa): 1062.4 ± 1.3 kg/m3 | mass density (5679.3 kPa): 1062.4 ± 1.3 kg/m3 | mass density (5684.7 kPa): 1062.3 ± 1.3 kg/m3 | mass density (5690 kPa): 1062.3 ± 1.3 kg/m3 | mass density (5696.8 kPa): 1062.3 ± 1.3 kg/m3 | mass density (5702.1 kPa): 1062.4 ± 1.3 kg/m3 | mass density (5707.9 kPa): 1062.3 ± 1.3 kg/m3 | mass density (5713.6 kPa): 1062.5 ± 1.3 kg/m3 | mass density (5720.3 kPa): 1062.4 ± 1.3 kg/m3 | mass density (5725.5 kPa): 1062.5 ± 1.3 kg/m3 | mass density (5731.2 kPa): 1062.4 ± 1.3 kg/m3 | mass density (5736.6 kPa): 1062.5 ± 1.3 kg/m3 | mass density (5743.3 kPa): 1062.3 ± 1.3 kg/m3 | mass density (5749 kPa): 1062.4 ± 1.3 kg/m3 | mass density (5754.4 kPa): 1062.4 ± 1.3 kg/m3 | mass density (5761.1 kPa): 1062.4 ± 1.3 kg/m3 | mass density (5766.6 kPa): 1062.4 ± 1.3 kg/m3 | mass density (5773.7 kPa): 1062.5 ± 1.3 kg/m3 | mass density (5779.1 kPa): 1062.4 ± 1.3 kg/m3 | mass density (5803.1 kPa): 1062.5 ± 1.3 kg/m3 | mass density (5808.7 kPa): 1062.4 ± 1.3 kg/m3 | mass density (5814.4 kPa): 1062.5 ± 1.3 kg/m3 | mass density (5821.5 kPa): 1062.5 ± 1.3 kg/m3 | mass density (5827.2 kPa): 1062.4 ± 1.3 kg/m3 | mass density (5833 kPa): 1062.4 ± 1.3 kg/m3 | mass density (5839.6 kPa): 1062.5 ± 1.3 kg/m3 | mass density (5845.5 kPa): 1062.5 ± 1.3 kg/m3 | mass density (5851.5 kPa): 1062.4 ± 1.3 kg/m3 | mass density (5857.2 kPa): 1062.5 ± 1.3 kg/m3 | mass density (5864.2 kPa): 1062.5 ± 1.3 kg/m3 | mass density (5869.9 kPa): 1062.5 ± 1.3 kg/m3 | mass density (5876.8 kPa): 1062.5 ± 1.3 kg/m3 | mass density (5882.3 kPa): 1062.4 ± 1.3 kg/m3 | mass density (5888.4 kPa): 1062.6 ± 1.3 kg/m3 | mass density (5894.6 kPa): 1062.4 ± 1.3 kg/m3 | mass density (5901.3 kPa): 1062.5 ± 1.3 kg/m3 | mass density (5907.2 kPa): 1062.5 ± 1.3 kg/m3 | mass density (5913.3 kPa): 1062.5 ± 1.3 kg/m3 | mass density (5919.5 kPa): 1062.5 ± 1.3 kg/m3 | mass density (5926.4 kPa): 1062.5 ± 1.3 kg/m3 | mass density (5932.3 kPa): 1062.6 ± 1.3 kg/m3 | mass density (5938.5 kPa): 1062.6 ± 1.3 kg/m3 | mass density (5944.6 kPa): 1062.5 ± 1.3 kg/m3 | mass density (5951.6 kPa): 1062.5 ± 1.3 kg/m3 | mass density (5957.7 kPa): 1062.5 ± 1.3 kg/m3 | mass density (5963.8 kPa): 1062.5 ± 1.3 kg/m3 | mass density (5971 kPa): 1062.5 ± 1.3 kg/m3 | mass density (5977.1 kPa): 1062.7 ± 1.3 kg/m3 | mass density (5983.3 kPa): 1062.6 ± 1.3 kg/m3 | mass density (5989.3 kPa): 1062.6 ± 1.3 kg/m3 | mass density (5996.6 kPa): 1062.6 ± 1.3 kg/m3 | mass density (6002.8 kPa): 1062.6 ± 1.3 kg/m3 | mass density (6009.4 kPa): 1062.5 ± 1.3 kg/m3 | mass density (6016.2 kPa): 1062.6 ± 1.3 kg/m3 | mass density (6022.5 kPa): 1062.7 ± 1.3 kg/m3 | mass density (6029.9 kPa): 1062.5 ± 1.3 kg/m3 | mass density (6036 kPa): 1062.6 ± 1.3 kg/m3 | mass density (6042.3 kPa): 1062.6 ± 1.3 kg/m3 | mass density (6048.4 kPa): 1062.6 ± 1.3 kg/m3 | mass density (6056 kPa): 1062.7 ± 1.3 kg/m3 | mass density (6062 kPa): 1062.6 ± 1.3 kg/m3 | mass density (6068.3 kPa): 1062.6 ± 1.3 kg/m3 | mass density (6075.9 kPa): 1062.6 ± 1.3 kg/m3 | mass density (6082.1 kPa): 1062.6 ± 1.3 kg/m3 | mass density (6088.5 kPa): 1062.6 ± 1.3 kg/m3 | mass density (6095.2 kPa): 1062.7 ± 1.3 kg/m3 | mass density (6100.5 kPa): 1062.6 ± 1.3 kg/m3 | mass density (6106.9 kPa): 1062.6 ± 1.3 kg/m3 | mass density (6114.5 kPa): 1062.7 ± 1.3 kg/m3 | mass density (6120.9 kPa): 1062.6 ± 1.3 kg/m3 | mass density (6127.1 kPa): 1062.6 ± 1.3 kg/m3 | mass density (6134.7 kPa): 1062.6 ± 1.3 kg/m3 | mass density (6140.7 kPa): 1062.6 ± 1.3 kg/m3 | mass density (6147.1 kPa): 1062.7 ± 1.3 kg/m3 | mass density (6153.9 kPa): 1062.7 ± 1.3 kg/m3 | mass density (6161.5 kPa): 1062.6 ± 1.3 kg/m3 | mass density (6167.9 kPa): 1062.6 ± 1.3 kg/m3 | mass density (6174.6 kPa): 1062.7 ± 1.3 kg/m3 | mass density (6182.6 kPa): 1062.6 ± 1.3 kg/m3 | mass density (6188.8 kPa): 1062.7 ± 1.3 kg/m3 | mass density (6195.4 kPa): 1062.8 ± 1.3 kg/m3 | mass density (6202.1 kPa): 1062.6 ± 1.3 kg/m3 | mass density (6210.1 kPa): 1062.8 ± 1.3 kg/m3 | mass density (6216.6 kPa): 1062.6 ± 1.3 kg/m3 | mass density (6223.4 kPa): 1062.6 ± 1.3 kg/m3 | mass density (6229.9 kPa): 1062.6 ± 1.3 kg/m3 | mass density (6237.5 kPa): 1062.7 ± 1.3 kg/m3
